Results reported in patent US11180504B2 (ORCHID PHARMA LTD., priority 2016, dated 2021).
Converted amounts (≈) assume the structure as drawn. Read-outs that look alike come from different tables or passages of the source.

Key:
[1] = test system: carbapenem sensitive Escherichia coli; test: MIC by broth micro-dilution (CLSI), carbapenem sensitive E. coli; format: cell-based
[2] = test system: methicillin-sensitive Staphylococcus aureus; test: MIC by broth micro-dilution (CLSI), methicillin-sensitive S. aureus; format: cell-based; conditions: MSSA S. aureus ATCC29213
[3] = test system: carbapenemase producing K. pneumoniae; test: MIC by broth micro-dilution (CLSI), carbapenemase producing K. pneumoniae; format: cell-based, Klebsiella pneumoniae
[4] = test system: carbapenem sensitive Pseudomonas aeruginosa; test: MIC by broth micro-dilution (CLSI), carbapenem sensitive P. aeruginosa; format: cell-based
[5] = Escherichia coli, ATCC25922, ESBL −ve E. coli ATCC25922, read-out: MIC
[6] = Staphylococcus aureus, ATCC 29213 / MSSA, read-out: MIC
[7] = Klebsiella pneumoniae, ATCCBAA1705, KPC-2 K. pneumoniae ATCC BAA-1705, read-out: MIC
[8] = Pseudomonas aeruginosa, ATCC27853, Meropenem susceptible P. aeruginosa ATCC27853, read-out: MIC
[9] = KPC-2 K. pneumoniae ATCC BAA-1705
[10] = Meropenem susceptible P. aeruginosa ATCC27853

| SMILES | MIC [1, 5] | MIC [2, 6] | MIC [3, 7] | MIC [4, 8] | MIC ([1]; ESBL −ve E. coli ATCC25922) | MIC [2] | MIC [3, 9] | MIC [4, 10] |
| --- | --- | --- | --- | --- | --- | --- | --- | --- |
| C[C@@H](NC(=O)Cn1cnnn1)[C@H]1C(=O)N2C(C(=O)O)=C(S[C@@H]3CN[C@H](C(=O)N4CC5CCNC5(CO)C4)C3)[C@H](C)[C@H]12 (single isomer, unassigned) [Example 556] | – | – | – | – | 0.125 µg/mL (≈ 0.212 µM) | 2 µg/mL (≈ 3.39 µM) | 1 µg/mL (≈ 1.7 µM) | 4 µg/mL (≈ 6.78 µM) |
| C[C@H]([C@H]1C(=O)N2C(C(=O)O)=C(S[C@@H]3CN[C@H](C(=O)N(C)C)C3)[C@H](C)[C@H]12)n1ncnn1 [Example 313, (4R,5S,6S)-6-((R) - 1-(2H-tetrazol-2-yl)ethyl)-3-((3S,5S)-5-(dimethylcarbamoyl)pyrrolidin-3-ylthio)-4-methyl-7-oxo-1-azabicyclo[3.2.0]hept-2-ene-2-carboxylic acid] | 1 µg/mL (≈ 2.3 µM) | 4 µg/mL (≈ 9.18 µM) | 16 µg/mL (≈ 36.7 µM) | > 128 µg/mL | – | – | – | – |
| C[C@@H](NC(=O)Cn1cnnn1)[C@H]1C(=O)N2C(C(=O)O)=C(CN3C[C@H](NC(=N)N)[C@@H](O)C3)[C@H](C)[C@H]12 [Example 600, (4S,5R,6R)-6-((R)-1-(2-(1H-tetrazol-1-yl)acetamido)ethyl)-3-(((3S,4S)-3-guanidino-4-hydroxypyrrolidin-1-yl)methyl)-4-methyl-7-oxo-1-azabicyclo[3.2.0]hept-2-ene-2-carboxylic acid] | 0.5 µg/mL (≈ 1.05 µM) | 0.5 µg/mL (≈ 1.05 µM) | 4 µg/mL (≈ 8.39 µM) | 16 µg/mL (≈ 33.6 µM) | – | – | – | – |
| C[C@@H](NC(=O)[C@H]1CC[C@@H](N)C1)[C@H]1C(=O)N2C(C(=O)O)=C(S[C@@H]3CN[C@H](C(=O)N(C)C)C3)[C@H](C)[C@H]12 [Example 266] | 2 µg/mL (≈ 4.05 µM) | 64 µg/mL (≈ 130 µM) | 8 µg/mL (≈ 16.2 µM) | 128 µg/mL (≈ 259 µM) | – | – | – | – |
| C[C@@H](NC(=O)Cn1cnnn1)[C@H]1C(=O)N2C(C(=O)O)=C(S[C@@H]3CN[C@H](C(=O)Nc4cccc(C(=O)N5CCNCC5)c4)C3)[C@H](C)[C@H]12 [Example 483, (4R,5S,6R)-6-((R)-1-(2-(1H-tetrazol-1-yl)acetamido)ethyl)-4-methyl-7-oxo-3-((3S,5S)-5-(3-(piperazine-1-carbonyl)phenylcarbamoyl)pyrrolidin-3-ylthio)-1-azabicyclo[3.2.0]] | 0.5 µg/mL (≈ 0.766 µM) | 4 µg/mL (≈ 6.13 µM) | 4 µg/mL (≈ 6.13 µM) | 128 µg/mL (≈ 196 µM) | – | – | – | – |
| C[C@@H](NC(=O)Cc1nnnn1C)[C@H]1C(=O)N2C(C(=O)O)=C(S[C@@H]3CN[C@H](C(=O)N(C)C)C3)[C@H](C)[C@H]12 [Example 304, (4R,5S,6R)-3-((3S,5S)-5-(dimethylcarbamoyl)pyrrolidin-3-ylthio)-4-methyl-6-((R) - 1-(2-(1-methyl-1H-tetrazol-5-yl)acetamido)ethyl)-7-oxo-1-azabicyclo[3.2.0]hept-2-ene-2-carboxylic acid] | 1 µg/mL (≈ 1.97 µM) | 8 µg/mL (≈ 15.8 µM) | 4 µg/mL (≈ 7.9 µM) | > 128 µg/mL | – | – | – | – |
| C[C@@H](NC(=O)Cn1cnnn1)[C@H]1C(=O)N2C(C(=O)O)=C(SC3CNC3)[C@H](C)[C@H]12 [Example 407, (4R,5S,6R)-6-((R)-1-(2-(1H-tetrazol-1-yl)acetamido)ethyl)-3-(azetidin-3-ylthio)-4-methyl-7-oxo-1-azabicyclo[3.2.0]hept-2-ene-2-carboxylic acid] | 0.5 µg/mL (≈ 1.23 µM) | 2 µg/mL (≈ 4.91 µM) | 1 µg/mL (≈ 2.45 µM) | 8 µg/mL (≈ 19.6 µM) | – | – | – | – |
| C[C@@H](NC(=O)Cn1cnnn1)[C@H]1C(=O)N2C(C(=O)O)=C(S[C@@H]3CN[C@H](C(=O)N4CC(N)C(CO)C4)C3)[C@H](C)[C@H]12 (single isomer, unassigned) [Example 587] | – | – | – | – | 0.25 µg/mL (≈ 0.444 µM) | 4 µg/mL (≈ 7.1 µM) | 2 µg/mL (≈ 3.55 µM) | 2 µg/mL (≈ 3.55 µM) |
| C[C@@H](NC(=O)Cn1nnnc1C(C)(C)C)[C@H]1C(=O)N2C(C(=O)O)=C(S[C@@H]3CN[C@H](C(=O)N(C)C)C3)[C@H](C)[C@H]12 [Example 356, (4R,5S,6R)-6-((R)-1-(2-(5-tert-butyl-1H-tetrazol-1-yl)acetamido)ethyl)-3-((3S,5S)-5-(dimethylcarbamoyl)pyrrolidin-3-ylthio)-4-methyl-7-oxo-1-azabicyclo[3.2.0]hept-2-ene-2-carboxylic acid] | 1 µg/mL (≈ 1.82 µM) | 4 µg/mL (≈ 7.29 µM) | 16 µg/mL (≈ 29.2 µM) | > 128 µg/mL | – | – | – | – |
| C[C@@H](NC(=O)CN1CCCC1)[C@H]1C(=O)N2C(C(=O)O)=C(S[C@@H]3CN[C@H](C(=O)N(C)C)C3)[C@H](C)[C@H]12 [Example 458, (4R,5S,6R)-3-((3S,5S)-5-(dimethylcarbamoyl)pyrrolidin-3-ylthio)-4-methyl-7-oxo-6-((R)-1-(2-(pyrrolidin-1-yl)acetamido)ethyl)-1-azabicyclo[3.2.0)hept-2-eoe-2-carboxylic acid] | 0.5 µg/mL (≈ 1.01 µM) | 16 µg/mL (≈ 32.4 µM) | 1 µg/mL (≈ 2.03 µM) | 16 µg/mL (≈ 32.4 µM) | – | – | – | – |
| C[C@H]([C@H]1C(=O)N2C(C(=O)O)=C(S[C@@H]3CN[C@H](C(=O)N4CC[C@@H](N)C4)C3)[C@H](C)[C@H]12)n1nnc(N)n1 [Example 327, (4R,5S,6S)-6-((R) - 1-(5-amino-2H-tetrazol-2-yl)ethyl)-3-((3S,5S)-5-((R)-3-aminopyrrolidine-1-carbonyl)pyrrolidin-3-ylthio)-4-methyl-7-oxo-1-azabicyclo[3.2.0]hept-2-ene-2-carboxylic acid] | 2 µg/mL (≈ 4.07 µM) | 1 µg/mL (≈ 2.03 µM) | 32 µg/mL (≈ 65.1 µM) | 64 µg/mL (≈ 130 µM) | – | – | – | – |
| C[C@@H](NCC1CC1)[C@H]1C(=O)N2C(C(=O)O)=C(S[C@@H]3CN[C@H](C(=O)N(C)C)C3)[C@H](C)[C@H]12 [Example 293] | 32 µg/mL (≈ 73.3 µM) | 128 µg/mL (≈ 293 µM) | 128 µg/mL (≈ 293 µM) | > 128 µg/mL | – | – | – | – |
| CNC(=O)CC(=O)N[C@H](C)[C@H]1C(=O)N2C(C(=O)O)=C(S[C@@H]3CN[C@H](C(=O)N(C)C)C3)[C@H](C)[C@H]12 [Example 272] | 64 µg/mL (≈ 133 µM) | 128 µg/mL (≈ 266 µM) | 64 µg/mL (≈ 133 µM) | > 128 µg/mL | – | – | – | – |

The remaining molecules from weak to strong by MIC [1, 5], led by results:

| MIC [1, 5] | MIC [2, 6] | MIC [3, 7] | MIC [4, 8] | MIC ([1]; ESBL −ve E. coli ATCC25922) | MIC [2] | MIC [3, 9] | MIC [4, 10] | SMILES |
| --- | --- | --- | --- | --- | --- | --- | --- | --- |
| 0.25 µg/mL (≈ 0.444 µM) | 2 µg/mL (≈ 3.55 µM) | 1 µg/mL (≈ 1.77 µM) | 1 µg/mL (≈ 1.77 µM) | – | – | – | – | C[C@@H](NC(=O)Cn1cnnn1)[C@H]1C(=O)N2C(C(=O)O)=C(S[C@@H]3CN[C@H](C(=O)N4C[C@H](N)C[C@H]4CO)C3)[C@H](C)[C@H]12 [Example 440, (4R,5S,6R)-6-((R)-1-(2-(1H-tetrazol-1-yl)acetamido)ethyl)-3-((3S,5S)-5-((2S,4R)-4-amino-2-(hydroxymethyl)pyrrolidine-1-carbonyl)pyrrolidin-3-ylthio)-4-methyl-7-oxo-1-azabicyclo[3.2.0]hept-2-ene-2-carboxylic acid] |
| 0.25 µg/mL (≈ 0.414 µM) | 4 µg/mL (≈ 6.63 µM) | 1 µg/mL (≈ 1.66 µM) | 2 µg/mL (≈ 3.31 µM) | – | – | – | – | C[C@@H](NC(=O)Cn1cnnn1)[C@H]1C(=O)N2C(C(=O)O)=C(S[C@@H]3CN[C@H](C(=O)N4CC5CCNCC5(CO)C4)C3)[C@H](C)[C@H]12 (single isomer, unassigned) [Example 539] |
| 0.25 µg/mL (≈ 0.414 µM) | 4 µg/mL (≈ 6.63 µM) | 2 µg/mL (≈ 3.31 µM) | 1 µg/mL (≈ 1.66 µM) | – | – | – | – | C[C@@H](NC(=O)Cn1cnnn1)[C@H]1C(=O)N2C(C(=O)O)=C(S[C@@H]3CN[C@H](C(=O)N4C[C@H]5C[C@H](N)C[C@@]5(CO)C4)C3)[C@H](C)[C@H]12 [Example 526, (4R,5S,6R)-6-((R)-1-(2-(1H-tetrazol-1-yl)acetamido)ethyl)-3-((3S,5S)-5-((3aS,5S,6aS)-5-amino-3a-(hydroxymethyl)octahydrocyclopenta[c]pyrrole-2-carbonyl)pyrrolidin-3-ylthio)-4-methyl-7-oxo-1-azabicyclo[3.2.0]hept-2-ene-2-carboxylic acid] |
| 0.25 µg/mL (≈ 0.387 µM) | 8 µg/mL (≈ 12.4 µM) | 1 µg/mL (≈ 1.55 µM) | 2 µg/mL (≈ 3.1 µM) | – | – | – | – | C[C@@H](NC(=O)Cn1cnnn1)[C@H]1C(=O)N2C(C(=O)O)=C(S[C@@H]3CN[C@H](C(=O)N4CCN(CCN5CCNCC5)CC4)C3)[C@H](C)[C@H]12 [Example 451, (4R,5S,6R)-6-((R)-1-(2-(1H-tetrazol-1-yl)acetamido)ethyl)-3-methyl-7-oxo-3-((3S,5S)-5-(4-(2-(piperazin-1-yl)ethyl)piperazine-1-carbonyl)pyrrolidin-3-ylthio)-1-azabicyclo[3.2.0]hept-2-ene-2-carboxylic acid] |
| 0.25 µg/mL (≈ 0.455 µM) | 8 µg/mL (≈ 14.6 µM) | 2 µg/mL (≈ 3.64 µM) | 8 µg/mL (≈ 14.6 µM) | – | – | – | – | C[C@@H](NC(=O)Cn1cnnn1)[C@H]1C(=O)N2C(C(=O)O)=C(S[C@@H]3CN[C@H](C(=O)N4C[C@@H](N)[C@H](O)C4)C3)[C@H](C)[C@H]12 [Example 329, (4R,5S,6R)-6-((R) - 1-(2-(1H-tetrazol-1-yl)acetamido)ethyl)-3-((3S,5S)-5-((3R,4R)-3-amino-4-hydroxypyrrolidine-1-carbonyl)pyrrolidin-3-ylthio)-4-methyl-7-oxo-1-azabicyclo[3.2.0]hept-2-ene-2-carboxylic acid] |
| 0.25 µg/mL (≈ 0.423 µM) | 2 µg/mL (≈ 3.38 µM) | 1 µg/mL (≈ 1.69 µM) | 2 µg/mL (≈ 3.38 µM) | – | – | – | – | C[C@@H](NC(=O)Cn1cnnn1)[C@H]1C(=O)N2C(C(=O)O)=C(S[C@@H]3CN[C@H](C(=O)N4C[C@H](NC(=N)N)[C@@H](O)C4)C3)[C@H](C)[C@H]12 [Example 427, (4R,5S,6R)-6-((R)-1-(2-(1H-tetrazol-1-yl)acetamido)ethyl)-3-((3S,5S)-5-((3S,4S)-3-guanidino-4-hydroxypyrrolidine-1-carbonyl)pyrrolidin-3-ylthio)-4-methyl-7-oxo-1-azabicyclo[3.2.0]hept-2-ene-2-carboxylic acid] |
